# ChEMBL document CHEMBL3885861, “Open TG-GATES”
# Species: Rattus norvegicus
# Assay: Open TG-GATES - Regimen: Daily Repeat
# Assay type: toxicity, organism-based, Sprague-Dawley
# Set-up: regimen Daily Repeat, gender Male, age 6 weeks
# Settings: in vivo, po, 3 mg/kg, route gavage, dose level Low; for APTT / Bas / Eos / Fbg / Hb / Ht / Lym / MCH / MCHC / MCV / Mono / Neu / PT / Plat / RBC / Ret / WBC: tissue Blood; for KIDNEY_L / KIDNEY_R / KIDNEY_TOTAL: tissue Kidney; for LIVER: tissue Liver; for A/G / ALP / ALT / AST / BUN / CRE / Ca / Cl / DBIL / GLC / IP / K / LDH / Na / PL / RALB / TBIL / TC / TG / TP / gamma-GTP: tissue Plasma
smiles,measurement,setting,value
Cn1cnc([N+](=O)[O-])c1Sc1ncnc2nc[nH]c12 [AZATHIOPRINE],TERMINAL_BW,"72 h, time 3 day",215.2 g
same,APTT,"72 h, time 3 day",20.9 s
same,Bas,"72 h, time 3 day",0%
same,Eos,"72 h, time 3 day",0.4%
same,Fbg,"72 h, time 3 day",312.4 mg/dL
same,Hb,"72 h, time 3 day",13 g/dL
same,Ht,"72 h, time 3 day",38.6%
same,Lym,"72 h, time 3 day",83.6%
same,MCH,"72 h, time 3 day",22 pg
same,MCHC,"72 h, time 3 day",33.6%
same,MCV,"72 h, time 3 day",65.4 fL
same,Mono,"72 h, time 3 day",1.8%
same,Neu,"72 h, time 3 day",13%
same,PT,"72 h, time 3 day",16.2 s
same,Plat,"72 h, time 3 day",125.6 x10_4/uL
same,RBC,"72 h, time 3 day",590 x10_4/ul
same,Ret,"72 h, time 3 day",7.5%
same,WBC,"72 h, time 3 day",81.3 x10_2/uL
same,KIDNEY_L,"72 h, time 3 day",1 g
same,KIDNEY_R,"72 h, time 3 day",1 g
same,KIDNEY_TOTAL,"72 h, time 3 day",1.9 g
same,LIVER,"72 h, time 3 day",10.5 g
same,A/G,"72 h, time 3 day",1.3
same,ALP,"72 h, time 3 day",1666 IU/L
same,ALT,"72 h, time 3 day",45 IU/L
same,AST,"72 h, time 3 day",73.2 IU/L
same,BUN,"72 h, time 3 day",17.6 mg/dL
same,CRE,"72 h, time 3 day",0.1 mg/dL
same,Ca,"72 h, time 3 day",11.3 mg/dL
same,Cl,"72 h, time 3 day",106.6 meq/L
same,DBIL,"72 h, time 3 day",0 mg/dL
same,GLC,"72 h, time 3 day",188.8 mg/dL
same,IP,"72 h, time 3 day",6.7 mg/dL
same,K,"72 h, time 3 day",4.4 meq/L
same,LDH,"72 h, time 3 day",192.8 IU/L
same,Na,"72 h, time 3 day",143.4 meq/L
same,PL,"72 h, time 3 day",142.8 mg/dL
same,RALB,"72 h, time 3 day",3.1 g/dL
same,TBIL,"72 h, time 3 day",0.008 mg/dL
same,TC,"72 h, time 3 day",73.8 mg/dL
same,TG,"72 h, time 3 day",85 mg/dL
same,TP,"72 h, time 3 day",5.6 g/dL
same,gamma-GTP,"72 h, time 3 day",1 IU/L
same,TERMINAL_BW,"[…], time 7 day",233.9 g
same,TERMINAL_BW,"[…], time 14 day",269.8 g
same,TERMINAL_BW,"[…], time 28 day",343.6 g
same,APTT,"[…], time 7 day",21.4 s
same,Bas,"[…], time 7 day",0%
same,Eos,"[…], time 7 day",1%
same,Fbg,"[…], time 7 day",312.6 mg/dL
same,Hb,"[…], time 7 day",14 g/dL
same,Ht,"[…], time 7 day",40.2%
same,Lym,"[…], time 7 day",79%
same,MCH,"[…], time 7 day",21.4 pg
same,MCHC,"[…], time 7 day",34.9%
same,MCV,"[…], time 7 day",61.3 fL
same,Mono,"[…], time 7 day",2.2%
same,Neu,"[…], time 7 day",17%
same,PT,"[…], time 7 day",15.8 s
same,Plat,"[…], time 7 day",115.5 x10_4/uL
same,RBC,"[…], time 7 day",655.8 x10_4/ul
same,Ret,"[…], time 7 day",5.5%
same,WBC,"[…], time 7 day",121.2 x10_2/uL
same,APTT,"[…], time 14 day",22.5 s
same,Bas,"[…], time 14 day",0%
same,Eos,"[…], time 14 day",0.8%
same,Fbg,"[…], time 14 day",325.2 mg/dL
same,Hb,"[…], time 14 day",14.6 g/dL
same,Ht,"[…], time 14 day",41%
same,Lym,"[…], time 14 day",77.4%
same,MCH,"[…], time 14 day",21.4 pg
same,MCHC,"[…], time 14 day",35.7%
same,MCV,"[…], time 14 day",59.9 fL
same,Mono,"[…], time 14 day",1.8%
same,Neu,"[…], time 14 day",19%
same,PT,"[…], time 14 day",16.3 s
same,Plat,"[…], time 14 day",113.2 x10_4/uL
same,RBC,"[…], time 14 day",684.8 x10_4/ul
same,Ret,"[…], time 14 day",3.6%
same,WBC,"[…], time 14 day",82.1 x10_2/uL
same,APTT,"[…], time 28 day",24.6 s
same,Bas,"[…], time 28 day",0%
same,Eos,"[…], time 28 day",1%
same,Fbg,"[…], time 28 day",302.2 mg/dL
same,Hb,"[…], time 28 day",14.6 g/dL
same,Ht,"[…], time 28 day",42.3%
same,Lym,"[…], time 28 day",84.6%
same,MCH,"[…], time 28 day",19.4 pg
same,MCHC,"[…], time 28 day",34.4%
same,MCV,"[…], time 28 day",56.4 fL
same,Mono,"[…], time 28 day",1.6%
same,Neu,"[…], time 28 day",12%
same,PT,"[…], time 28 day",16.5 s
same,Plat,"[…], time 28 day",116.9 x10_4/uL
same,RBC,"[…], time 28 day",749.8 x10_4/ul
same,Ret,"[…], time 28 day",2.7%
same,WBC,"[…], time 28 day",116.8 x10_2/uL
same,KIDNEY_L,"[…], time 7 day",1 g
same,KIDNEY_R,"[…], time 7 day",1 g
same,KIDNEY_TOTAL,"[…], time 7 day",2 g
same,KIDNEY_L,"[…], time 14 day",1.1 g
same,KIDNEY_R,"[…], time 14 day",1.1 g
same,KIDNEY_TOTAL,"[…], time 14 day",2.2 g
same,KIDNEY_L,"[…], time 28 day",1.3 g
same,KIDNEY_R,"[…], time 28 day",1.3 g
same,KIDNEY_TOTAL,"[…], time 28 day",2.5 g
same,LIVER,"[…], time 7 day",10.6 g
same,LIVER,"[…], time 14 day",11.4 g
same,LIVER,"[…], time 28 day",14.1 g
same,A/G,"[…], time 7 day",1.2
same,ALP,"[…], time 7 day",1762.2 IU/L
same,ALT,"[…], time 7 day",44.2 IU/L
same,AST,"[…], time 7 day",71.2 IU/L
same,BUN,"[…], time 7 day",19.8 mg/dL
same,CRE,"[…], time 7 day",0.1 mg/dL
same,Ca,"[…], time 7 day",10.5 mg/dL
same,Cl,"[…], time 7 day",107.6 meq/L
same,DBIL,"[…], time 7 day",0 mg/dL
same,GLC,"[…], time 7 day",201 mg/dL
same,IP,"[…], time 7 day",7 mg/dL
same,K,"[…], time 7 day",4.1 meq/L
same,LDH,"[…], time 7 day",232 IU/L
same,Na,"[…], time 7 day",143.2 meq/L
same,PL,"[…], time 7 day",151.2 mg/dL
same,RALB,"[…], time 7 day",3.1 g/dL
same,TBIL,"[…], time 7 day",0.006 mg/dL
same,TC,"[…], time 7 day",74.8 mg/dL
same,TG,"[…], time 7 day",117.4 mg/dL
same,TP,"[…], time 7 day",5.7 g/dL
same,gamma-GTP,"[…], time 7 day",1.2 IU/L
same,A/G,"[…], time 14 day",1.1
same,ALP,"[…], time 14 day",1472 IU/L
same,ALT,"[…], time 14 day",34.6 IU/L
same,AST,"[…], time 14 day",61.4 IU/L
same,BUN,"[…], time 14 day",17.4 mg/dL
same,CRE,"[…], time 14 day",0.2 mg/dL
same,Ca,"[…], time 14 day",10.7 mg/dL
same,Cl,"[…], time 14 day",108 meq/L
same,DBIL,"[…], time 14 day",0 mg/dL
same,GLC,"[…], time 14 day",185.4 mg/dL
same,IP,"[…], time 14 day",6.1 mg/dL
same,K,"[…], time 14 day",4.2 meq/L
same,LDH,"[…], time 14 day",145 IU/L
same,Na,"[…], time 14 day",143.8 meq/L
same,PL,"[…], time 14 day",143.2 mg/dL
same,RALB,"[…], time 14 day",3.1 g/dL
same,TBIL,"[…], time 14 day",0.006 mg/dL
same,TC,"[…], time 14 day",74.2 mg/dL
same,TG,"[…], time 14 day",116.2 mg/dL
same,TP,"[…], time 14 day",5.9 g/dL
same,gamma-GTP,"[…], time 14 day",1 IU/L
same,A/G,"[…], time 28 day",1.1
same,ALP,"[…], time 28 day",1129.8 IU/L
same,ALT,"[…], time 28 day",46.2 IU/L
same,AST,"[…], time 28 day",71.2 IU/L
same,BUN,"[…], time 28 day",19.2 mg/dL
same,CRE,"[…], time 28 day",0.2 mg/dL
same,Ca,"[…], time 28 day",10.6 mg/dL
same,Cl,"[…], time 28 day",107.8 meq/L
same,DBIL,"[…], time 28 day",0.002 mg/dL
same,GLC,"[…], time 28 day",185 mg/dL
same,IP,"[…], time 28 day",5.6 mg/dL
same,K,"[…], time 28 day",3.9 meq/L
same,LDH,"[…], time 28 day",181 IU/L
same,Na,"[…], time 28 day",141.8 meq/L
same,PL,"[…], time 28 day",156.8 mg/dL
same,RALB,"[…], time 28 day",3.2 g/dL
same,TBIL,"[…], time 28 day",0.01 mg/dL
same,TC,"[…], time 28 day",79 mg/dL
same,TG,"[…], time 28 day",110.6 mg/dL
same,TP,"[…], time 28 day",6.1 g/dL
same,gamma-GTP,"[…], time 28 day",1.2 IU/L
